# Measured values: ChEMBL document CHEMBL3352057, “Novel fluorinated pyrrolo[1,2-a]pyrazine-2,6-dione derivatives: synthesis and anticonvulsant evaluation in animal models of epilepsy” (Bioorg Med Chem, 2014)
# Active and inactive are the calls of the source. The calls are words filed in the database; no cut-off is given here.
# Legend:
# Mus musculus [1] = test: Anticonvulsant activity in ip dosed albino CF1 mouse assessed as protection against maximal electroshock-induced seizures; format: functional
# Mus musculus [2] = test: Anticonvulsant activity in ip dosed albino CF1 mouse assessed as protection against subcutaneous metrazol-induced seizures; format: functional
# Mus musculus [3] = test: Anticonvulsant activity in ip dosed albino CF1 mouse assessed as protection against maximal electroshock-induced seizures measured as time to peak effect; format: functional
# [4] = Neurotoxicity in ip dosed albino CF1 mouse; format: toxicity, organism-based; conditions: in vivo
# [5] = Neurotoxicity in ip dosed Sprague-Dawley rat; format: toxicity, organism-based; conditions: in vivo
# Rattus norvegicus [6] = test: Anticonvulsant activity in ip dosed Sprague-Dawley rat assessed as protection against subcutaneous metrazol-induced seizures; format: functional
# Rattus norvegicus [7] = test: Anticonvulsant activity in ip dosed Sprague-Dawley rat assessed as protection against maximal electroshock-induced seizures measured as time to peak effect; format: functional
# [8] = Protective index, ratio of TD50 for neurotoxicity in ip dosed Sprague-Dawley rat to ED50 for anticonvulsant activity in ip dosed MES Sprague-Dawley rat model; format: toxicity, organism-based; conditions: in vivo, read-out: Ratio TD50/ED50
# Rattus norvegicus [9] = test: Anticonvulsant activity in ip dosed Sprague-Dawley rat assessed as protection against maximal electroshock-induced seizures; format: functional
# Rattus norvegicus [10] = test: Anticonvulsant activity in Sprague-Dawley rat assessed as protection against maximal electroshock-induced seizures at 30 mg/kg, po measured after 1 hr; format: functional, organism-based; parameters: dose 30 mg/kg
# Rattus norvegicus [11] = test: Neurotoxicity in MES Sprague-Dawley rat model at 30 mg/kg, po measured after 0.25 hr; format: toxicity, organism-based; parameters: dose 30 mg/kg, route oral; conditions: in vivo
# Rattus norvegicus [12] = test: Neurotoxicity in MES Sprague-Dawley rat model at 30 mg/kg, po measured after 2 hrs; format: toxicity, organism-based; parameters: dose 30 mg/kg, route oral; conditions: in vivo
# Rattus norvegicus [13] = test: Neurotoxicity in MES Sprague-Dawley rat model at 30 mg/kg, po measured after 0.5 hr; format: toxicity, organism-based; parameters: dose 30 mg/kg, route oral; conditions: in vivo
# Rattus norvegicus [14] = test: Anticonvulsant activity in Sprague-Dawley rat assessed as protection against maximal electroshock-induced seizures at 30 mg/kg, ip measured after 0.25 hr; format: functional, organism-based; parameters: dose 30 mg/kg
# Rattus norvegicus [15] = test: Anticonvulsant activity in Sprague-Dawley rat assessed as protection against maximal electroshock-induced seizures at 30 mg/kg, ip measured after 0.5 hr; format: functional, organism-based; parameters: dose 30 mg/kg
# Mus musculus [16] = test: Neurotoxicity in albino CF1 mouse at 100 mg/kg, ip measured after 0.5 hr; format: toxicity, organism-based; parameters: dose 100 mg/kg, route intraperitoneal; conditions: in vivo
# Mus musculus [17] = test: Anticonvulsant activity in albino CF1 mouse assessed as protection against 32 mA current-induced seizures at 100 mg/kg, ip measured after 2 hrs; format: functional, organism-based; parameters: dose 100 mg/kg
# Rattus norvegicus [18] = test: Anticonvulsant activity in Sprague-Dawley rat assessed as protection against maximal electroshock-induced seizures at 30 mg/kg, po measured after 2 hrs; format: functional, organism-based; parameters: dose 30 mg/kg
# Rattus norvegicus [19] = test: Neurotoxicity in MES Sprague-Dawley rat model at 30 mg/kg, po measured after 1 hr; format: toxicity, organism-based; parameters: dose 30 mg/kg, route oral; conditions: in vivo
# Rattus norvegicus [20] = test: Anticonvulsant activity in Sprague-Dawley rat assessed as protection against maximal electroshock-induced seizures at 30 mg/kg, ip measured after 1 hr; format: functional, organism-based; parameters: dose 30 mg/kg
# Rattus norvegicus [21] = test: Anticonvulsant activity in Sprague-Dawley rat assessed as protection against maximal electroshock-induced seizures at 30 mg/kg, ip measured after 2 hrs; format: functional, organism-based; parameters: dose 30 mg/kg
# Rattus norvegicus [22] = test: Anticonvulsant activity in Sprague-Dawley rat assessed as protection against maximal electroshock-induced seizures at 30 mg/kg, po measured after 0.5 hr; format: functional, organism-based; parameters: dose 30 mg/kg
# Mus musculus [23] = test: Neurotoxicity in 32 mA current-induced seizure albino CF1 mouse model at 100 mg/kg, ip measured after 2 hrs; format: toxicity, organism-based; parameters: dose 100 mg/kg, route intraperitoneal; conditions: in vivo
# Mus musculus [24] = test: Anticonvulsant activity in albino CF1 mouse assessed as protection against maximal electroshock-induced seizures at 100 mg/kg, ip measured after 4 hrs; format: functional, organism-based; parameters: dose 100 mg/kg
# Rattus norvegicus [25] = test: Neurotoxicity in MES Sprague-Dawley rat model at 30 mg/kg, ip measured after 1 hr; format: toxicity, organism-based; parameters: dose 30 mg/kg, route intraperitoneal; conditions: in vivo
# Mus musculus [26] = test: Neurotoxicity in albino CF1 mouse at 100 mg/kg, ip measured after 4 hrs; format: toxicity, organism-based; parameters: dose 100 mg/kg, route intraperitoneal; conditions: in vivo
# Rattus norvegicus [27] = test: Neurotoxicity in MES Sprague-Dawley rat model at 30 mg/kg, ip measured after 4 hrs; format: toxicity, organism-based; parameters: dose 30 mg/kg, route intraperitoneal; conditions: in vivo
# Rattus norvegicus [28] = test: Anticonvulsant activity in Sprague-Dawley rat assessed as protection against maximal electroshock-induced seizures at 30 mg/kg, ip measured after 4 hrs; format: functional, organism-based; parameters: dose 30 mg/kg
# Rattus norvegicus [29] = test: Neurotoxicity in MES Sprague-Dawley rat model at 30 mg/kg, ip measured after 2 hrs; format: toxicity, organism-based; parameters: dose 30 mg/kg, route intraperitoneal; conditions: in vivo
# Rattus norvegicus [30] = test: Neurotoxicity in MES Sprague-Dawley rat model at 30 mg/kg, po measured after 4 hrs; format: toxicity, organism-based; parameters: dose 30 mg/kg, route oral; conditions: in vivo
# Rattus norvegicus [31] = test: Anticonvulsant activity in Sprague-Dawley rat assessed as protection against maximal electroshock-induced seizures at 30 mg/kg, po measured after 4 hrs; format: functional, organism-based; parameters: dose 30 mg/kg
# Mus musculus [32] = test: Anticonvulsant activity in albino CF1 mouse assessed as protection against maximal electroshock-induced seizures at 100 mg/kg, ip measured after 0.5 hr; format: functional, organism-based; parameters: dose 100 mg/kg
# Rattus norvegicus [33] = test: Neurotoxicity in MES Sprague-Dawley rat model at 30 mg/kg, ip measured after 0.25 hr; format: toxicity, organism-based; parameters: dose 30 mg/kg, route intraperitoneal; conditions: in vivo
# Rattus norvegicus [34] = test: Anticonvulsant activity in Sprague-Dawley rat assessed as protection against maximal electroshock-induced seizures at 30 mg/kg, po measured after 0.25 hr; format: functional, organism-based; parameters: dose 30 mg/kg
# Mus musculus [35] = test: Anticonvulsant activity in albino CF1 mouse assessed as protection against 32 mA current-induced seizures at 100 mg/kg, ip measured after 0.5 hr; format: functional, organism-based; parameters: dose 100 mg/kg
# Rattus norvegicus [36] = test: Neurotoxicity in MES Sprague-Dawley rat model at 30 mg/kg, ip measured after 0.5 hr; format: toxicity, organism-based; parameters: dose 30 mg/kg, route intraperitoneal; conditions: in vivo
# Mus musculus [37] = test: Neurotoxicity in 32 mA current-induced seizure albino CF1 mouse model at 100 mg/kg, ip measured after 0.5 hr; format: toxicity, organism-based; parameters: dose 100 mg/kg, route intraperitoneal; conditions: in vivo
structure (smiles),measurement,setting,value
CCC1(c2ccccc2)C(=O)NC(=O)NC1=O [PHENOBARBITAL],ED50,Mus musculus [1],94 µmol/kg
same,ED50,Mus musculus [2],57 µmol/kg
same,Time,Mus musculus [3],1 h
same,TD50,[4],297 µmol/kg
O=C1NC(=O)C(c2ccccc2)(c2ccccc2)N1 [PHENYTOIN],TD50,[5],66 µmol/kg
same,ED50,Rattus norvegicus [6],> 430 µmol/kg
same,Time,Rattus norvegicus [7],0.25 h
same,selectivity ratio,[8],6.4
same,ED50,Rattus norvegicus [9],10 µmol/kg
Cl.O=C1NC(=O)[C@@H]2C[C@@H](O)CN2C1c1cccc(C(F)(F)F)c1 (mixture of isomers),Activity,Rattus norvegicus [10],inactive
same,Activity,Rattus norvegicus [11],Non-toxic
same,Activity,Rattus norvegicus [12],Non-toxic
same,Activity,Rattus norvegicus [13],Non-toxic
same,Activity,Rattus norvegicus [14],inactive
same,Activity,Rattus norvegicus [15],inactive
same,Activity,Mus musculus [16],Toxic
same,Activity,Mus musculus [17],inactive
same,Activity,Rattus norvegicus [18],inactive
same,Activity,Rattus norvegicus [19],Non-toxic
same,Activity,Rattus norvegicus [20],inactive
same,Activity,Rattus norvegicus [21],inactive
same,Activity,Rattus norvegicus [22],inactive
same,Activity,Mus musculus [23],Non-toxic
same,Activity,Mus musculus [24],inactive
same,Activity,Rattus norvegicus [25],Non-toxic
same,Activity,Mus musculus [26],Non-toxic
same,Activity,Rattus norvegicus [27],Non-toxic
same,Activity,Rattus norvegicus [28],inactive
same,Activity,Rattus norvegicus [29],Non-toxic
same,Activity,Rattus norvegicus [30],Non-toxic
same,Activity,Rattus norvegicus [31],inactive
same,Activity,Mus musculus [32],Active
same,Activity,Rattus norvegicus [33],Non-toxic
same,Activity,Rattus norvegicus [34],inactive
same,Activity,Mus musculus [35],Active
same,Activity,Rattus norvegicus [36],Non-toxic
same,Activity,Mus musculus [37],Toxic
